{
  "source": "patent US20220387383A1",
  "about": "(University of South Africa, priority 2019, published 2022)",
  "key": {"[1]": {"conditions": "literature, in words, cited from earlier work"}, "[2]": {"test_system": "HEK293 human embryonic kidney cells", "assay": "MTT assay for cell viability, HEK293 normal embryonic kidney cells", "type": "cell-based", "conditions": "0.1-200 μM, 48 hours", "experimental": "(§1) The A375 human malignant melanoma cells, PANC-1 pancreatic cancer cells and HEK293 human embryonic kidney cells were cultured in media containing 89% DMEM, 10% FBS and 1% penicillin-streptomycin. Once confluent, the cells were washed thrice with 1×PBS and detached from T75 flasks by incubating the cells with 2 mL trypsin-EDTA for 5-10 minutes at 37° C. 2 mL DMEM was added to the cells to stop the reaction of trypsin-EDTA. […] The intensity of this colour is proportional to the state of metabolic activity in the cells and therefore the extent of cell viability. MTT is therefore used to measure the extent to which the drugs are toxic. PANC-1 pancreatic cancer, A375 malignant melanoma and HEK293 human embryonic kidney cell lines were cultured to confluence in CytoOne T75 vented cell culture flasks (USA Scientific). The cells were counted using a haemocytometer and passaged/plated into CytoOne 96 well plates (USA Scientific). […] Absorbance readings were measured at 570 nm using a 96 well plate reader. The percentage of viable cells in treated and untreated cultures was calculated and compared. […] The cell viability data was expressed as the mean±standard deviation (SD) from three independent experiments. The IC50 values were calculated using the non-linear regression test which briefly involves conversion of the ezetimibe concentrations to log values. […]"}, "[3]": {"test_system": "PANC-1 pancreatic cancer cells", "assay": "MTT assay for cell viability, PANC-1 pancreatic cancer cells", "type": "cell-based", "conditions": "Homo sapiens; PANC-1, MTT, 48 hours", "experimental": "as §1"}, "[4]": {"conditions": "cited from earlier work"}, "[5]": {"test_system": "A375 human malignant melanoma cells", "assay": "MTT assay for cell viability, A375 malignant melanoma cells", "type": "cell-based", "conditions": "for IC50: A375, MTT, 48 hours, nonlinear regression, read-out: IC50, growth inhibition of melanoma cell line", "experimental": "The A375 human malignant melanoma cells, PANC-1 pancreatic cancer cells and HEK293 human embryonic kidney cells were cultured in media containing 89% DMEM, 10% FBS and 1% penicillin-streptomycin. Once confluent, the cells were washed thrice with 1×PBS and detached from T75 flasks by incubating the cells with 2 mL trypsin-EDTA for 5-10 minutes at 37° C. 2 mL DMEM was added to the cells to stop the reaction of trypsin-EDTA. […] The intensity of this colour is proportional to the state of metabolic activity in the cells and therefore the extent of cell viability. MTT is therefore used to measure the extent to which the drugs are toxic. PANC-1 pancreatic cancer, A375 malignant melanoma and HEK293 human embryonic kidney cell lines were cultured to confluence in CytoOne T75 vented cell culture flasks (USA Scientific). The cells were counted using a haemocytometer and passaged/plated into CytoOne 96 well plates (USA Scientific). Approximately 5 000 cells per 200 μl were plated. The plates were incubated overnight to allow for attachment. The medium was removed after overnight incubation. […] After incubation for 48 hours, 20 μL of MTT reagent was added and incubated for 4 hours. Approximately 200 μL of the solubilisation reagent was added to each well and incubated overnight. The MTT assay was performed using the cell proliferation kit I (MTT) (Roche, Switzerland) by following the instructions in the manual. Absorbance readings were measured at 570 nm using a 96 well plate reader. The percentage of viable cells in treated and untreated cultures was calculated and compared. All statistical analyses were performed using Prism GraphPad Software (San Diego, Calif. 92108, USA). The cell viability data was expressed as the mean±standard deviation (SD) from three independent experiments. The IC50 values were calculated using the non-linear regression test which briefly involves conversion of the ezetimibe concentrations to log values. The log values were matched with their corresponding cell viability percentages. The one sample T-test and Wilcoxon Signed Rank Test were used to determine the statistical difference between the cell viability percentage in treated cells."}, "[6]": {"conditions": "literature, in words, cited from earlier work", "remark": "listed apart in the source"}, "[7]": {"test_system": "cholesterol absorption", "conditions": "reported experiments with the initial drug lead; cited from earlier work"}, "[8]": {"target": "Mdm2 (Homo sapiens, UniProt Q00987)", "sequence (Q00987 whole entry)": "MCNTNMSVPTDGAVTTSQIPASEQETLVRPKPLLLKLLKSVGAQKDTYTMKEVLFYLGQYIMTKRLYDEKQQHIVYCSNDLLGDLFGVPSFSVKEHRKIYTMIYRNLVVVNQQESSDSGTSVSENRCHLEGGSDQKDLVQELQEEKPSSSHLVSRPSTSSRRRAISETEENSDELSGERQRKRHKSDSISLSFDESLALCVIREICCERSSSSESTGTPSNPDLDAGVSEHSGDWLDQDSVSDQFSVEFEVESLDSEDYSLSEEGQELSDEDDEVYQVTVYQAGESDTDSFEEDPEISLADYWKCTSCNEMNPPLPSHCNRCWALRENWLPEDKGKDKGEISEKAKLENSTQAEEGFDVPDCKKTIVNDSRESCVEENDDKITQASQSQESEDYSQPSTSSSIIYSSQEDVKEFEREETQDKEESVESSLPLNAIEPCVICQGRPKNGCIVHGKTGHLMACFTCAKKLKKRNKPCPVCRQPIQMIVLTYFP", "conditions": "Warner et al. 2012; cited from earlier work"}, "[9]": {"conditions": "ezetimibe and/or the glucuronide metabolite"}},
  "note": "“Also recorded” adds a separate entry of the source. Like-named read-outs stand apart in the source and are kept apart here.",
  "data": [
    {"compound": "COc1cc(/C=C/C(=O)CC(=O)/C=C/c2ccc(O)c(OC)c2)ccc1O", "note": "[Curcumin]", "values": [
      {"measurement": "Bioavailability", "setting": "[1]", "result": "Poor"},
      {"measurement": "Bioavailability", "setting": "[1]; listed as curcumin", "result": "poor bioavailability; also recorded: low bioavailability"}
    ]},
    {"compound": "O=C1[C@H](CC[C@H](O)c2ccc(F)cc2)[C@@H](c2ccc(O)cc2)N1c1ccc(F)cc1", "note": "[Ezetimibe]", "values": [
      {"measurement": "Toxicity to normal human embryonic kidney cell line", "setting": "[2]", "result": "non-toxic; also recorded: does not exhibit toxicity"},
      {"measurement": "IC50", "setting": "[3]", "result": 71.6, "unit": "µM"},
      {"measurement": "Fraction metabolised in the intestine to the glucuronide metabolite", "setting": "[4]; by UGT 1A1, 1A3 and 2B15", "result": "Up to 80%"},
      {"measurement": "Excreted in the faeces", "setting": "[4]; [9]", "result": 90, "unit": "%"},
      {"measurement": "Excreted in urine", "setting": "[4]; [9]", "result": 10, "unit": "%"},
      {"measurement": "IC50", "setting": "[5]", "result": 30.7, "unit": "µM"},
      {"measurement": "IC50", "setting": "[5]; Homo sapiens, A-375, 48 h", "result": 30.7, "unit": "µM"},
      {"measurement": "inhibition at 200 µM", "setting": "[5]; Homo sapiens, A-375, A375, highest concentration, 200 μM, read-out: Inhibition of the melanoma cell line", "result": "> 80", "unit": "%"},
      {"measurement": "inhibition at 1 µM", "setting": "[5]; Homo sapiens, A-375, A375, lowest concentration tested, 1 μM, read-out: Inhibition of the melanoma cell line", "result": "~20", "unit": "%"},
      {"measurement": "Concentrations toxic to cancer cells", "setting": "[5]; cancer cells (A375 and PANC-1), MTT", "result": "20 to 80", "unit": "µM"},
      {"measurement": "Aqueous Solubility", "setting": "[6]", "result": "Poor"},
      {"measurement": "Aqueous Solubility", "setting": "[6]; listed as ezetimibe", "result": "highly insoluble"},
      {"measurement": "Bioavailability", "setting": "[1]", "result": "poor bioavailability; also recorded: Almost negligible"},
      {"measurement": "Bioavailability", "setting": "[1]; listed as ezetimibe", "result": "low bioavailability"}
    ]},
    {"compound": "COc1ccc([C@@H]2[C@@H](CCCc3ccccc3)C(=O)N2c2ccc(OC)cc2)cc1", "note": "[SCH48461]", "values": [
      {"measurement": "Inhibition of cholesterol absorption", "setting": "[7]", "result": 70, "unit": "%"}
    ]},
    {"compound": "COc1ccc(C2=NC(c3ccc(Cl)cc3)C(c3ccc(Cl)cc3)N2C(=O)N2CCNC(=O)C2)c(OC(C)C)c1", "note": "(stereo not shown) [nutlin-3a, 4-(4,5-bis(4-chlorophenyl)-2-(2-isopropoxy-4-methoxyphenyl)-4,5-dihydro-1H-imidazole-1-carbonyl) piperazin-2-one]", "values": [
      {"measurement": "Estimated free energy of binding, kcal/mol (Patch Dock)", "setting": "[8]", "result": "−7.7+/−0.6 kcal/mol (Warner et al. 2012)"},
      {"measurement": "Bioavailability", "setting": "[1]", "result": "poor bioavailability"}
    ]}
  ]
}
